In US9403813B2, “Azetidine amide derivatives as orexin receptor antagonists” (ACTELION PHARMACEUTICALS LTD, priority 2013, dated 2016):

Assays:
[1] = molecular target: human orexin-2 receptor (Homo sapiens (Human), UniProt O43614); assay: Intracellular calcium measurements (FLIPR), antagonism of orexin-A response; type: cell-based; settings: CHO cells expressing human orexin-2 receptor, 3 nM orexin-A, geometric mean if determined several times, read-out: IC50 OX2
Experimental: (§1) Antagonistic activities on both orexin receptors have been measured for each example compound using the following procedure:
(§2) In Vitro Assay: Intracellular Calcium Measurements:
(§3) Chinese hamster ovary (CHO) cells expressing the human orexin-1 receptor and the human orexin-2 receptor, respectively, are grown in culture medium (Ham F-12 with L-Glutamine) containing 300 μg/mL G418, 100 U/mL penicillin, 100 μg/mL streptomycin and 10% heat inactivated fetal calf serum (FCS). The cells are seeded at 20,000 cells/well into 384-well black clear bottom sterile plates (Greiner). The seeded plates are incubated overnight at 37° C. in 5% CO2. Human orexin-A as an agonist is prepared as 1 mM stock solution in MeOH:water (1:1), diluted in HBSS containing 0.1% bovine serum albumin (BSA), NaHCO3: 0.375 g/L and 20 mM HEPES for use in the assay at a final concentration of 3 nM.
(§4) Antagonists are prepared as 10 mM stock solution in DMSO, then diluted in 384-well plates using DMSO followed by a transfer of the dilutions into in HBSS containing 0.1% bovine serum albumin (BSA), NaHCO3: 0.375 g/L and 20 mM HEPES. On the day of the assay, 50 μL of staining buffer (HBSS containing 1% FCS, 20 mM HEPES, NaHCO3: 0.375 g/L, 5 mM probenecid (Sigma) and 3 μM of the fluorescent calcium indicator fluo-4 AM (1 mM stock solution in DMSO, containing 10% pluronic) is added to each well. The 384-well cell-plates are incubated for 50 min at 37° C. in 5% CO2 followed by equilibration at rt for 30 min before measurement.
(§5) Within the Fluorescent Imaging Plate Reader (FLIPR Tetra, Molecular Devices), antagonists are added to the plate in a volume of 10 μL/well, incubated for 120 min and finally 10 μL/well of agonist is added. Fluorescence is measured for each well at 1 second intervals, and the height of each fluorescence peak is compared to the height of the fluorescence peak induced by 3 nM orexin-A with vehicle in place of antagonist. The IC50 value (the concentration of compound needed to inhibit 50% of the agonistic response) is determined and may be normalized using the obtained IC50 value of an on-plate reference compound. Optimized conditions were achieved by adjustment of pipetting speed and cell splitting regime. The calculated IC50 values may fluctuate depending on the daily cellular assay performance. Fluctuations of this kind are known to those skilled in the art. In the case where IC50 values have been determined several times for the same compound, the geometric mean has been given.

[2] = molecular target: human orexin-1 receptor (Homo sapiens (Human), UniProt O43613); assay: as above; type: cell-based; settings: CHO cells expressing human orexin-1 receptor, 3 nM orexin-A, geometric mean if determined several times, read-out: IC50 OX1
Experimental: as §1, §2, §3, §4, §5

Chain of human orexin-2 receptor (O43614 whole entry): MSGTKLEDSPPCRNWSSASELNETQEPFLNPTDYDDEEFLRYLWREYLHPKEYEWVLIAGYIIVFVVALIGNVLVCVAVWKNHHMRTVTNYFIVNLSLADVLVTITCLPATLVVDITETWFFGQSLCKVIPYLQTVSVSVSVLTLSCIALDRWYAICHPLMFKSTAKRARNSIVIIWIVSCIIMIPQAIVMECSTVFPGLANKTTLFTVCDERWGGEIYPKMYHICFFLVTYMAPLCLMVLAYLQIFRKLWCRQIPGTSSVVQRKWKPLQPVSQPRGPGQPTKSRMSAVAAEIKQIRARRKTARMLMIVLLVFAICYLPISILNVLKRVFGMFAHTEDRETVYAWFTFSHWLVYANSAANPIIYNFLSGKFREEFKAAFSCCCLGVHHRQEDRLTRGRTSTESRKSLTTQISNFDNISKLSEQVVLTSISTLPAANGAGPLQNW
Chain of human orexin-1 receptor (O43613 whole entry): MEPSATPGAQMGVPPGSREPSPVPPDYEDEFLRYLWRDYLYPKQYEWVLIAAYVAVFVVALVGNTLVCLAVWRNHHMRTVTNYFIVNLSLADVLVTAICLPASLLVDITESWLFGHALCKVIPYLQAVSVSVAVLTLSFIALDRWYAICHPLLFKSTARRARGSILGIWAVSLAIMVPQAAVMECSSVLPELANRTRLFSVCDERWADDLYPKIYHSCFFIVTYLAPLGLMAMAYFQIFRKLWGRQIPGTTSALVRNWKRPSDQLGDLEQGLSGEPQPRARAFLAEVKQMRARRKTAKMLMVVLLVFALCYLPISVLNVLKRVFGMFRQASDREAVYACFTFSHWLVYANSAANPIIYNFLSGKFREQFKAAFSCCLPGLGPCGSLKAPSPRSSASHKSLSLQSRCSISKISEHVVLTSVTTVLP

IC50 [1] | IC50 [2] | Compound
0.027 µM | 1.75 µM | COc1cc(C(=O)N2CC[C@H]2c2nc(-c3cccc(F)c3C)no2)c(-n2nccn2)cc1F [Example 25, (4-Fluoro-5-methoxy-2-[1,2,3]triazol-2-yl-phenyl)-{(S)-2-[3-(3-fluoro-2-methyl-phenyl)-[1,2,4]oxadiazol-5-yl]-azetidin-1-yl}-methanone]
0.026 µM | 2.08 µM | COc1cc(C(=O)N2CC[C@H]2c2nc(-c3cccc(F)c3OC)no2)c(-n2nccn2)cc1F [Example 26, {(S)-2-[3-(3-Fluoro-2-methoxy-phenyl)-[1,2,4]oxadiazol-5-yl]-azetidin-1-yl}-(4-fluoro-5-methoxy-2-[1,2,3]triazol-2-yl-phenyl)-methanone]
0.006 µM | 0.22 µM | COc1cc(C(=O)N2CC[C@H]2c2nc(-c3ccccc3OC(F)(F)F)no2)c(-n2nccn2)cc1C [Example 27, (5-Methoxy-4-methyl-2-[1,2,3]triazol-2-yl-phenyl)-{(S)-2-[3-(2-trifluoromethoxy-phenyl)-[1,2,4]oxadiazol-5-yl]-azetidin-1-yl}-methanone]
0.002 µM | 0.397 µM | COc1cc(C(=O)N2CC[C@H]2c2nc(-c3cccc(Cl)c3C)no2)c(-n2nccn2)cc1C [Example 28, {(S)-2-[3-(3-Chloro-2-methyl-phenyl)-[1,2,4]oxadiazol-5-yl]-azetidin-1-yl}-(5-methoxy-4-methyl-2-[1,2,3]triazol-2-yl-phenyl)-methanone]
0.004 µM | 0.671 µM | COc1cc(C(=O)N2CC[C@H]2c2nc(-c3cccc(F)c3C)no2)c(-n2nccn2)cc1C [Example 29, {(S)-2-[3-(3-Fluoro-2-methyl-phenyl)-[1,2,4]oxadiazol-5-yl]-azetidin-1-yl}-(5-methoxy-4-methyl-2-[1,2,3]triazol-2-yl-phenyl)-methanone]
0.01 µM | 0.295 µM | CCOc1ncccc1-c1noc([C@@H]2CCN2C(=O)c2cc(C)ccc2-n2nccn2)n1 [Example 30, {(S)-2-[3-(2-Ethoxy-pyridin-3-yl)-[1,2,4]oxadiazol-5-yl]-azetidin-1-yl}-(5-methyl-2-[1,2,3]triazol-2-yl-phenyl)-methanone]
0.003 µM | 0.068 µM | CCOc1ncccc1-c1noc([C@@H]2CCN2C(=O)c2cc(C)c(C)cc2-n2nccn2)n1 [Example 31, (4,5-Dimethyl-2-[1,2,3]triazol-2-yl-phenyl)-{(S)-2-[3-(2-ethoxy-pyridin-3-yl)-[1,2,4]oxadiazol-5-yl]-azetidin-1-yl}-methanone]
0.1 µM | 0.819 µM | CCOc1ncccc1-c1noc([C@@H]2CCN2C(=O)c2ccc(C)cc2-n2nccn2)n1 [Example 32, {(S)-2-[3-(2-Ethoxy-pyridin-3-yl)-[1,2,4]oxadiazol-5-yl]-azetidin-1-yl}-(4-methyl-2-[1,2,3]triazol-2-yl-phenyl)-methanone]
0.027 µM | 1.5 µM | CCOc1ncccc1-c1noc([C@@H]2CCN2C(=O)c2cc(OC)c(F)cc2-n2nccn2)n1 [Example 33, {(S)-2-[3-(2-Ethoxy-pyridin-3-yl)-[1,2,4]oxadiazol-5-yl]-azetidin-1-yl}-(4-fluoro-5-methoxy-2-[1,2,3]triazol-2-yl-phenyl)-methanone]
0.005 µM | 0.238 µM | CCOc1ncccc1-c1noc([C@@H]2CCN2C(=O)c2cc(OC)c(C)cc2-n2nccn2)n1 [Example 34, {(S)-2-[3-(2-Ethoxy-pyridin-3-yl)-[1,2,4]oxadiazol-5-yl]-azetidin-1-yl}-(5-methoxy-4-methyl-2-[1,2,3]triazol-2-yl-phenyl)-methanone]
0.287 µM | 3.82 µM | Cc1ccc(-n2nccn2)c(C(=O)N2CC[C@H]2c2nc(-c3ccccc3)no2)c1 [Example 36, (5-Methyl-2-[1,2,3]triazol-2-yl-phenyl)-[(S)-2-(3-phenyl-[1,2,4]oxadiazol-5-yl)-azetidin-1-yl]-methanone]
0.059 µM | 0.458 µM | Cc1nc(C(=O)N2CC[C@H]2c2nc(-c3ccccc3OC(F)(F)F)no2)c(-c2ccccc2F)s1 [Example 37, [5-(2-Fluoro-phenyl)-2-methyl-thiazol-4-yl]-{(S)-2-[3-(2-trifluoromethoxy-phenyl)-[1,2,4]oxadiazol-5-yl]-azetidin-1-yl}-methanone]
0.119 µM | 0.322 µM | Cc1cccc(-c2sc(C)nc2C(=O)N2CC[C@H]2c2nc(-c3ccccc3OC(F)(F)F)no2)c1 [Example 38, (2-Methyl-5-m-tolyl-thiazol-4-yl)-{(S)-2-[3-(2-trifluoromethoxy-phenyl)-[1,2,4]oxadiazol-5-yl]-azetidin-1-yl}-methanone]
0.004 µM | 0.075 µM | Cc1ccc(-c2ccccc2)c(C(=O)N2CC[C@H]2c2nc(-c3ccccc3OC(F)(F)F)no2)c1 [Example 39, (4-Methyl-biphenyl-2-yl)-{(S)-2-[3-(2-trifluoromethoxy-phenyl)-[1,2,4]oxadiazol-5-yl]-azetidin-1-yl}-methanone]
0.041 µM | 0.221 µM | Cc1nc(C(=O)N2CC[C@H]2c2nc(-c3ccccc3OC(F)(F)F)no2)c(-c2ccccc2)s1 [Example 40, (2-Methyl-5-phenyl-thiazol-4-yl)-{(S)-2-[3-(2-trifluoromethoxy-phenyl)-[1,2,4]oxadiazol-5-yl]-azetidin-1-yl}-methanone]
0.01 µM | 0.043 µM | CN(C)c1nc(C(=O)N2CC[C@H]2c2nc(-c3ccccc3OC(F)(F)F)no2)c(-c2ccccc2)s1 [Example 41, (2-Dimethylamino-5-phenyl-thiazol-4-yl)-{(S)-2-[3-(2-trifluoromethoxy-phenyl)-[1,2,4]oxadiazol-5-yl]-azetidin-1-yl}-methanone]
0.266 µM | 0.4 µM | O=C(c1ncsc1-c1ccccc1)N1CC[C@H]1c1nc(-c2ccccc2OC(F)(F)F)no1 [Example 42, (5-Phenyl-thiazol-4-yl)-{(S)-2-[3-(2-trifluoromethoxy-phenyl)-[1,2,4]oxadiazol-5-yl]-azetidin-1-yl}-methanone]
0.357 µM | 0.288 µM | O=C(c1ncsc1-c1cccc(Cl)c1)N1CC[C@H]1c1nc(-c2ccccc2OC(F)(F)F)no1 [Example 43, [5-(3-Chloro-phenyl)-thiazol-4-yl]-{(S)-2-[3-(2-trifluoromethoxy-phenyl)-[1,2,4]oxadiazol-5-yl]-azetidin-1-yl}-methanone]
0.073 µM | 0.282 µM | Cc1ccc(-c2sc(C)nc2C(=O)N2CC[C@H]2c2nc(-c3ccccc3OC(F)(F)F)no2)cc1 [Example 44, (2-Methyl-5-p-tolyl-thiazol-4-yl)-{(S)-2-[3-(2-trifluoromethoxy-phenyl)-[1,2,4]oxadiazol-5-yl]-azetidin-1-yl}-methanone]
0.416 µM | 0.745 µM | Cc1nc(C(=O)N2CC[C@H]2c2nc(-c3ccccc3OC(F)(F)F)no2)c(-c2ccccc2C)s1 [Example 45, (2-Methyl-5-o-tolyl-thiazol-4-yl)-{(S)-2-[3-(2-trifluoromethoxy-phenyl)-[1,2,4]oxadiazol-5-yl]-azetidin-1-yl}-methanone]

Compound | IC50 [1] | IC50 [2]
Cc1ccc(-n2nccn2)c(C(=O)N2CC[C@H]2c2nc(-c3cccnc3OC3CCC3)no2)c1 [Example 35, {(S)-2-[3-(2-Cyclobutoxy-pyridin-3-yl)-[1,2,4]oxadiazol-5-yl]-azetidin-1-yl}-(5-methyl-2-[1,2,3]triazol-2-yl-phenyl)-methanone] | 0.071 µM | 0.292 µM
